Data published in patent publication US9975853B2, “Tetrahydroisoquinolinone derivatives and their use in the inhibition of the HSP70 protein” (Julius-Maximilians-Universitaet Wuerzburg, priority 2014, dated 2018).
Entries after “also recorded” stand apart in the source; their conditions may differ.

Experiments:
HSP73 = target: T1, HSP73 (Homo sapiens, UniProt P11142); test: Western blot analysis of HSP73 expression in INA-6 cells; type: cell-based; conditions: INA-6, 0.6 μM, with Z-VAD-FMK 50 μM
T1 construct: endogenous in cells; host or cells: INA-6 multiple myeloma cells
Description: Western Blot Analysis. Protein expression levels were determined with Western blotting procedures (M. Chatterjee, et al., Blood 2002, 100, 3311-3318). Following separation by SDS-PAGE, proteins were transferred onto nitrocellulose membranes (Schleicher & Schuell, Dassel, Germany) and stained with antibodies against Hsp72, Hsp73, Hsp90 (all from Enzo Life Science, Lörrach, Germany), AIF, lamin A, caspases 9 and 3, PARP (all from Santa Cruz, Heidelberg, Germany). An anti-α tubulin antibody (Sigma, Deisenhofen, Germany) was employed to assess equal loading. Secondary antibodies used were anti-rat (Enzo Life Science), anti-rabbit and anti-mouse (both from GE Healthcare, Little Chalfont, UK). […] The heat shock proteins HSP72 and HSP73 critically interact with HSP90 in order to mediate an essential chaperone function for a multitude of proteins including various signaling intermediates. According to an established HSP72/73-dependent client protein signature and its role for survival in MM, the proposed anti-HSP72/73 effect of trans-7b in the INA-6 multiple myeloma (MM) cell line model was evaluated. […] Lysates were cleared by centrifugation, measured by quantitative protein assay (Bio-Rad, München, Germany) and subjected to SDS gel electrophoresis. […]

[1] = system: apoptosis-inducing factor (AIF); test: Apoptosis assay: nuclear translocation of AIF in INA-6 cells (Western blot); type: cell-based, human; conditions: INA-6, 0.6 μM, 8 hours, nuclear pellets
Description: (§1) Apoptosis Assays. Hsp70-dependent prevention of apoptosis was investigated by analyses of the apoptosis-inducing factors (AIF) and of the caspases 9 and 3 in INA-6 cells. INA-6 cells were treated with 0.6 μM of compound trans-7b for 8 hours prior to analyze nuclear translocation of AIF. Staining of the nuclear protein lamin A was used as a loading control. […] Analysis of cleavage of the bona fide caspase substrate PARP served as a control for caspase activation. Co-treatment with the pan-caspase inhibitor Z-VAD-FMK (50 μM) was employed as another specificity control.
Western Blot Analysis. Protein expression levels were determined with Western blotting procedures (M. Chatterjee, et al., Blood 2002, 100, 3311-3318). Following separation by SDS-PAGE, proteins were transferred onto nitrocellulose membranes (Schleicher & Schuell, Dassel, Germany) and stained with antibodies against Hsp72, Hsp73, Hsp90 (all from Enzo Life Science, Lörrach, Germany), AIF, lamin A, caspases 9 and 3, PARP (all from Santa Cruz, Heidelberg, Germany). […] According to an established HSP72/73-dependent client protein signature and its role for survival in MM, the proposed anti-HSP72/73 effect of trans-7b in the INA-6 multiple myeloma (MM) cell line model was evaluated. […] Lysates were cleared by centrifugation, measured by quantitative protein assay (Bio-Rad, München, Germany) and subjected to SDS gel electrophoresis. […]

caspases 9 and 3 = test: Apoptosis assay: cleavage and activation of caspases 9 and 3, PARP cleavage in INA-6 cells (Western blot); type: cell-based, human; conditions: INA-6, 0.6 μM, 24 hours
Description: as §1
In FIG. 2A Western blot analyses of caspases 9 and 3, and the caspase substrate PARP (upper panel), and viability analyses (lower panel) of INA-6 MM cells upon treatment with trans-7b for 24 hours are shown. […] Lysates were cleared by centrifugation, measured by quantitative protein assay (Bio-Rad, München, Germany) and subjected to SDS gel electrophoresis. […] INA-6 cells were washed in PBS, incubated for 15 minutes in 100 ml binding buffer (10 mM HEPES/NaOH, pH 7.4, 140 mM NaCl, 2.5 mM CaCl2) containing 2.5 mL annexin V-FITC mix and 1 mg/ml PI and analyzed by flow cytometry (FACSCalibur/CELLQuest; Becton Dickinson, Heidelberg, Germany). […] Raw data of three independent experiments have been calculated to establish means, standard deviation and dose-effect curves of trans-7b.

T1 sequence (P11142 whole entry): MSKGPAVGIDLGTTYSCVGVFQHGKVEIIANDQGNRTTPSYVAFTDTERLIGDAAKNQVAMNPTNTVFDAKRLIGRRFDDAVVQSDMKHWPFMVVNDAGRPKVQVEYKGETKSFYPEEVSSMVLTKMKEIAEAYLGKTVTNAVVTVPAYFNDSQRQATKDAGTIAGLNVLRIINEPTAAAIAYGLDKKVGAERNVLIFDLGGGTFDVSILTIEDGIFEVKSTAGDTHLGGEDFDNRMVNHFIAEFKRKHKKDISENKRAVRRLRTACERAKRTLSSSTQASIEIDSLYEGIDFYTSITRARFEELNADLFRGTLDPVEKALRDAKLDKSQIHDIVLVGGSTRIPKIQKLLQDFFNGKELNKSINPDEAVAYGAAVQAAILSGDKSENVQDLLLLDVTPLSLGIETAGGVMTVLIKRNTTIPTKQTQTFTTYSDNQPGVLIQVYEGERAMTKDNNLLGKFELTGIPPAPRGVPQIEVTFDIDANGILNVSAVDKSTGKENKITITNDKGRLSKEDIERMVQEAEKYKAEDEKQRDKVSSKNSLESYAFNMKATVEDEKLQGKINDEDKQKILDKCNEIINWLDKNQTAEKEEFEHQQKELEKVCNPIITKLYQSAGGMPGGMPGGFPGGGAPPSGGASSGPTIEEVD

SMILES: COc1ccc(C2C(C(=O)Nc3cccc(C)n3)c3ccccc3C(=O)N2c2ccccc2)cc1 (stereo not drawn) [trans-7b, trans-3-(4-Methoxyphenyl)-N-(6-methylpyridin-2-yl)-1-oxo-2-phenyl-1,2,3,4-tetrahydroisoquinoline-4-carboxamide]
- HSP73 constitutive expression level (HSP73): decreases; also recorded: reduced
- nuclear translocation of activated AIF [1]: shifting from the cytosol to the nucleus
- caspase 9 and 3 cleavage/activation (PARP cleavage) (caspases 9 and 3): activation of the caspases 9 and 3; also recorded: sequential caspase 9 and 3 cleavage leading to their activation
